Reference: US20190209501A1, “COMPOSITIONS AND METHODS OF USE OF BETA-HYDROXY-BETA-METHYLBUTYRATE (HMB) […] IN[…]” (Texas Tech University Office of Research Commercialization, priority 2018, published 2019)

What was measured:
[1] = Vascular assessments (blood pressure, aortic pulse wave velocity); type: in vivo, human; parameters: Pulse Wave Velocity: unit not given here; conditions: for Aortic Diastolic Pressure / Aortic Systolic Pressure / Brachial Diastolic Pressure / Brachial Systolic Pressure / Heart Rate / Pulse Wave Velocity: mean ± SE; for Aortic Diastolic Pressure Δ / Aortic Diastolic Pressure Δ (%) / Aortic Systolic Pressure Δ / Aortic Systolic Pressure Δ (%) / Brachial Diastolic Pressure Δ / Brachial Diastolic Pressure Δ (%) / Brachial Systolic Pressure Δ / Brachial Systolic Pressure Δ (%) / Heart Rate Δ / Heart Rate Δ (%) / Pulse Wave Velocity Δ / Pulse Wave Velocity Δ (%): change baseline to W 8; for Aortic Diastolic Pressure ES (d) / Aortic Systolic Pressure ES (d) / Brachial Diastolic Pressure ES (d) / Brachial Systolic Pressure ES (d) / Heart Rate ES (d) / Pulse Wave Velocity ES (d): effect size
Description: Brachial blood pressure was measured using an automated cuff-based sphygmomanometer (HEM-907, Omron Healthcare. Kyoto, Japan). From this measurement, mean blood pressure and diastolic blood pressure were used to calibrate ensemble-averaged pressure waveforms measured at the left radial artery using applanation tonometry (SphygmoCor PVx, AtCor Medical, Itasca, Ill., USA). A general transfer function was also used to synthesize a central aortic waveform from the radial artery measurement. Wave separation analysis of the aortic pressure waveform allowed estimation of aortic pulse wave velocity (PWV), an index of arterial stiffness. Each participant remained supine for ≥10 min prior to vascular assessment. Duplicate measurements were obtained and averaged for analysis.

[2] = Questionnaires (Mood and Feelings, Pittsburgh Sleep Quality Index, Three-Factor Eating); type: in vivo, human; conditions: for MFQ Δ / MFQ Δ (%) / PSQI Δ / PSQI Δ (%) / TFEQ-CR Δ / TFEQ-CR Δ (%) / TFEQ-EE Δ / TFEQ-EE Δ (%) / TFEQ-UE Δ / TFEQ-UE Δ (%): change baseline to W 8
Description: As part of the screening procedures, participants were interviewed using a lifestyle questionnaire for determination of baseline eating and exercise habits. Participants completed follow-up lifestyle questionnaires at subsequent research visits. Additionally, participants completed the Mood and Feelings Questionnaire (38), the Pittsburgh Sleep Quality Index (39), the Three-Factor Eating Questionnaire Revised 18-item version (40) and a menstrual cycle questionnaire at each morning laboratory assessment session.

[3] = 3 g/d Calcium-HMB without intermittent fasting + RT, cited from earlier work
[4] = approximate; cited from earlier work

CC(C)(O)CC(=O)O [TRFHMB, β-hydroxy-β-methylbutyrate]
Aortic Diastolic Pressure ([1]; ITT, Baseline): 68 ± 2 mmHg | Aortic Systolic Pressure ([1]; ITT, Baseline): 96 ± 2 mmHg | Brachial Diastolic Pressure ([1]; ITT, Baseline): 67 ± 1 mmHg | Brachial Systolic Pressure ([1]; ITT, Baseline): 112 ± 2 mmHg | Heart Rate ([1]; ITT, Baseline): 62 ± 3 bpm | Pulse Wave Velocity ([1]; ITT, Baseline): 5.5 ± 0.2 | Aortic Diastolic Pressure ([1]; ITT, W 8): 64 ± 2 mmHg | Aortic Systolic Pressure ([1]; ITT, W 8): 94 ± 2 mmHg | Brachial Diastolic Pressure ([1]; ITT, W 8): 63 ± 2 mmHg | Brachial Systolic Pressure ([1]; ITT, W 8): 110 ± 2 mmHg | Heart Rate ([1]; ITT, W 8): 63 ± 3 bpm | Pulse Wave Velocity ([1]; ITT, W 8): 5.7 ± 0.1 | Aortic Diastolic Pressure Δ ([1]; ITT): −4 mmHg | Aortic Diastolic Pressure Δ (%) ([1]; ITT): −6% | Aortic Systolic Pressure Δ ([1]; ITT): −2 mmHg | Aortic Systolic Pressure Δ (%) ([1]; ITT): −2% | Brachial Diastolic Pressure Δ ([1]; ITT): −4 mmHg | Brachial Diastolic Pressure Δ (%) ([1]; ITT): −6% | Brachial Systolic Pressure Δ ([1]; ITT): −2 mmHg | Brachial Systolic Pressure Δ (%) ([1]; ITT): −2% | Heart Rate Δ ([1]; ITT): 1 bpm | Heart Rate Δ (%) ([1]; ITT): 2% | Pulse Wave Velocity Δ ([1]; ITT): 0.2 | Pulse Wave Velocity Δ (%) ([1]; ITT): 4% | Aortic Diastolic Pressure ES (d) ([1]; ITT): −0.64 | Aortic Systolic Pressure ES (d) ([1]; ITT): −0.46 | Brachial Diastolic Pressure ES (d) ([1]; ITT): −0.63 | Brachial Systolic Pressure ES (d) ([1]; ITT): −0.22 | Heart Rate ES (d) ([1]; ITT): 0.07 | Pulse Wave Velocity ES (d) ([1]; ITT): 0.37 | Aortic Diastolic Pressure ([1]; PP, Baseline): 68 ± 2 mmHg | Aortic Systolic Pressure ([1]; PP, Baseline): 97 ± 2 mmHg | Brachial Diastolic Pressure ([1]; PP, Baseline): 67 ± 2 mmHg | Brachial Systolic Pressure ([1]; PP, Baseline): 111 ± 2 mmHg | Heart Rate ([1]; PP, Baseline): 62 ± 5 bpm | Pulse Wave Velocity ([1]; PP, Baseline): 5.5 ± 0.3 | Aortic Diastolic Pressure ([1]; PP, W 8): 65 ± 2 mmHg | Aortic Systolic Pressure ([1]; PP, W 8): 95 ± 2 mmHg | Brachial Diastolic Pressure ([1]; PP, W 8): 64 ± 2 mmHg | Brachial Systolic Pressure ([1]; PP, W 8): 112 ± 2 mmHg | Heart Rate ([1]; PP, W 8): 62 ± 5 bpm | Pulse Wave Velocity ([1]; PP, W 8): 5.8 ± 0.2 | Aortic Diastolic Pressure Δ ([1]; PP): −3 mmHg | Aortic Diastolic Pressure Δ (%) ([1]; PP): −4% | Aortic Systolic Pressure Δ ([1]; PP): −2 mmHg | Aortic Systolic Pressure Δ (%) ([1]; PP): −2% | Brachial Diastolic Pressure Δ ([1]; PP): −3 mmHg | Brachial Diastolic Pressure Δ (%) ([1]; PP): −4% | Brachial Systolic Pressure Δ ([1]; PP): 1 mmHg | Brachial Systolic Pressure Δ (%) ([1]; PP): 1% | Heart Rate Δ ([1]; PP): 0 bpm | Heart Rate Δ (%) ([1]; PP): 0% | Pulse Wave Velocity Δ ([1]; PP): 0.3 | Pulse Wave Velocity Δ (%) ([1]; PP): 5% | Aortic Diastolic Pressure ES (d) ([1]; PP): −0.53 | Aortic Systolic Pressure ES (d) ([1]; PP): −0.20 | Brachial Diastolic Pressure ES (d) ([1]; PP): −0.49 | Brachial Systolic Pressure ES (d) ([1]; PP): 0.13 | Heart Rate ES (d) ([1]; PP): 0.06 | Pulse Wave Velocity ES (d) ([1]; PP): 0.46 | MFQ score ([2]; ITT, Baseline, mean ± SE): 1.4 ± 0.6 | PSQI score ([2]; ITT, Baseline, mean ± SE): 3.1 ± 0.3 | TFEQ-CR score ([2]; ITT, Baseline, mean ± SE): 17.8 ± 1 | TFEQ-UE score ([2]; ITT, Baseline, mean ± SE): 20.0 ± 1.2 | MFQ score ([2]; ITT, W 4, mean ± SE): 0.7 ± 0.4 | PSQI score ([2]; ITT, W 4, mean ± SE): 3.0 ± 0.3 | TFEQ-CR score ([2]; ITT, W 4, mean ± SE): 18.0 ± 1 | TFEQ-EE score ([2]; ITT, W 4, mean ± SE): 4.9 ± 0.5 | TFEQ-UE score ([2]; ITT, W 4, mean ± SE): 18.1 ± 1.4 | MFQ score ([2]; ITT, W 8, mean ± SE): 0.4 ± 0.4 | PSQI score ([2]; ITT, W 8, mean ± SE): 2.7 ± 0.2 | TFEQ-CR score ([2]; ITT, W 8, mean ± SE): 18.2 ± 1.1 | TFEQ-EE score ([2]; ITT, W 8, mean ± SE): 4.5 ± 0.6 | TFEQ-UE score ([2]; ITT, W 8, mean ± SE): 16.3 ± 1.3 | MFQ Δ ([2]; ITT): −1.0 | MFQ Δ (%) ([2]; ITT): −71% | PSQI Δ ([2]; ITT): −0.4 | PSQI Δ (%) ([2]; ITT): −13% | TFEQ-CR Δ ([2]; ITT): 0.4 | TFEQ-CR Δ (%) ([2]; ITT): 2% | TFEQ-EE Δ ([2]; ITT): −0.9 | TFEQ-EE Δ (%) ([2]; ITT): −17% | TFEQ-UE Δ ([2]; ITT): −3.7 | TFEQ-UE Δ (%) ([2]; ITT): −19% | MFQ (Mood and Feelings Questionnaire) score ([2]; PP, Baseline, mean ± SE): 1.1 ± 0.7 | PSQI (Pittsburgh Sleep Quality Index) score ([2]; PP, Baseline, mean ± SE): 3.1 ± 0.3 | TFEQ-CR (Three-Factor Eating Questionnaire, Cognitive Restraint) score ([2]; PP, Baseline, mean ± SE): 17.1 ± 1.2 | TFEQ-EE (Emotional Eating) score ([2]; PP, Baseline, mean ± SE): 4.9 ± 0.6 | TFEQ-UE (Uncontrolled Eating) score ([2]; PP, Baseline, mean ± SE): 18.4 ± 1.3 | MFQ score ([2]; PP, W 4, mean ± SE): 0.6 ± 0.5 | PSQI score ([2]; PP, W 4, mean ± SE): 2.7 ± 0.3 | TFEQ-CR score ([2]; PP, W 4, mean ± SE): 18.3 ± 1.2 | TFEQ-EE score ([2]; PP, W 4, mean ± SE): 4.4 ± 0.7 | TFEQ-UE score ([2]; PP, W 4, mean ± SE): 18.7 ± 2.0 | MFQ score ([2]; PP, W 8, mean ± SE): 0.1 ± 0.5 | PSQI score ([2]; PP, W 8, mean ± SE): 2.6 ± 0.3 | TFEQ-CR score ([2]; PP, W 8, mean ± SE): 18.8 ± 1.1 | TFEQ-EE score ([2]; PP, W 8, mean ± SE): 3.7 ± 0.7 | TFEQ-UE score ([2]; PP, W 8, mean ± SE): 15.5 ± 1.8 | MFQ Δ ([2]; PP): −1.0 | MFQ Δ (%) ([2]; PP): −91% | PSQI Δ ([2]; PP): −0.5 | PSQI Δ (%) ([2]; PP): −16% | TFEQ-CR Δ ([2]; PP): 1.7 | TFEQ-CR Δ (%) ([2]; PP): 10% | TFEQ-EE Δ ([2]; PP): −1.2 | TFEQ-EE Δ (%) ([2]; PP): −24% | TFEQ-UE Δ ([2]; PP): −2.9 | TFEQ-UE Δ (%) ([2]; PP): −16% | BF % after 4 weeks ([3]; females n=18, from 23.7±1.1, nonsignificant): 23.0±1.2% | BF % 4-week Δ-change [3]: −0.7% | Loss of HMB to urine after HMB is fed [4]: 20-50%
